Experimental data published in US6326465A, “Immunomodulatory polypeptides derived from the invariant chain of MHC class II” (The Johns Hopkins University, priority 1998, dated 2001).

Tests used:
[1] = system: Lewis syngeneic PHA blasts; assay: Lysis of PHA lymphoblast target cells by syngeneic GVHD effector T cells; type: cell-based, rat; settings: target cells loaded with 10 uM; versus diluent treated target cells
Method: FIG. 1. Graph showing comparison of percent specific lysis conferred by truncated variants of CLIP. Lewis syngeneic PHA blasts were force-loaded with the truncated variants of CLIP (10 μmol/L, 1 hr, 4° C.) prior to assay. Effector T cells (nylon wool nonadherent) were derived from animals with syngeneic GVHD that were clonally expanded in thymectomized secondary Lewis recipients.
Truncated peptides from the rat MHC Class II invariant chain V0 : (sequence aa 82-103 […] (SEQ ID NO:1)), V1: aa 90-104 (SEQ ID NO:2), V2: 86-100 (SEQ ID NO:3), V3: 90-100(SEQ ID NO:4) were synthesized by Quality Controlled Biochemicals Co. (Hopkinton, Ma.) and purified by HPLC.^15,23 The peptides (>92% purity) were dissolved in RPMI 1640 prior to use. Force loading of CLIP was accomplished by incubating the cells in 10 μM of the peptide for 1 hr. at 4° C. […] Antibody was prepared to the CLIP peptide by Quality Controlled Biochemicals Co. The peptides were conjugated to keyhole limpet hemocyanin (KLH). Rabbits were immunized with the peptide-KLH conjugate. The antibody was affinity purified using peptide conjugated sepharose matrix columns.
We first evaluated whether CLIP in rats is recognized by the autoreactive T cells associated with CsA-induced syngeneic GVHD by comparing the lysis of target cells after various pretreatment conditions.
Target cells were loaded with the CLIP variants (10 uM) and evaluated for […]

[2] = system: tumor cells; assay: Cytokine modulation of CsA-induced SGVHD in the rat model; type: in vivo; settings: for cure of animals: animals given 5×10^3 tumor cells; for enhancement of the antitumor effect of SGVHD: rat model
[3] = system: target cells; type: cell-based, rat
[4] = system: CRL 1662 myeloma cells; assay: Antitumor activity after adoptive transfer of syngeneic GVHD effector T cells; type: in vivo, rat; settings: with syngeneic GVHD effector cells; […]10^4 CRL 1662 cells; cytokines for ten days
Method: Nylon wool nonadherent spleen cells (50×10^6) from Lou M animals with syngeneic GVHD were adoptively transferred into secondary Lou M recipients (irradiated, bone marrow reconstituted) challenged with 2.5×10^4 CRL 1662 myeloma cells. […] Survival was assessed and log tumor cell kill was estimated from dose response studies (see Table 6).

Substance	cure of animals [2]	enhancement of the antitumor effect of SGVHD [2]	other results
KPCSP(R)			Enhancement of Target Cell Recognition [1]: +++ (enhancement representing at least a >25% increase in specific killing)
interferon-α	about half	1-2 logs	
staphylococcal enterotoxin β [SEB]			ability of effector T lymphocytes to recognize and lyse the target cells [3]: completely inhibited; preventing recognition and lysis [3]: ineffective
γ-interferon: cytokine, 50,000 U/d	about half	1-2 logs	Estimated Log Tumor Cell Kill [4]: 2.5-3.0
